Laboratory results: ChEMBL document CHEMBL5325432, “Systematic study of 1,2,3-triazolyl sterols for the development of new drugs against parasitic Neglected Tropical Diseases” (Eur J Med Chem, 2023)

Tests used:
Leishmania donovani = assay: Antileishmanial activity against Leishmania donovani S1 promastigotes assessed as parasite growth inhibition incubated for 72 hrs by Alamar blue assay; assay type: functional, organism-based; conditions: S1, 72 h
Trypanosoma brucei = assay: Antiparasitic activity against Trypanosoma brucei assessed as parasite growth inhibition incubated for 3 days by Alamar blue assay; assay type: functional, organism-based; conditions: 72 h
Trypanosoma cruzi = assay: Antiparasitic activity against Trypanosoma cruzi epimastigotes assessed as parasite growth inhibition incubated for 14 days by Alamar blue assay; assay type: functional, organism-based; conditions: 336 h
[1] = Cytotoxicity against African green monkey Vero cells incubated for 48 hrs; assay type: toxicity, cell-based; conditions: African green monkey (Chlorocebus sabaeus)
[2] = Selectivity index, ratio of IC50 for cytotoxicity against African green monkey Vero cells to IC50 for antiparasitic activity against Trypanosoma brucei assessed as parasite growth inhibition; assay type: toxicity, cell-based; conditions: read-out: Ratio IC50
[3] = Selectivity index, ratio of IC50 for cytotoxicity against African green monkey Vero cells to IC50 for antileishmanial activity against Leishmania donovani S1 promastigotes assessed as parasite growth inhibition; assay type: toxicity, cell-based; conditions: read-out: Ratio IC50
[4] = Selectivity index, ratio of IC50 for cytotoxicity against African green monkey Vero cells to IC50 for antiparasitic activity against Trypanosoma cruzi epimastigotes assessed as parasite growth inhibition; assay type: toxicity, cell-based; conditions: read-out: Ratio IC50

Structure (SMILES)	IC50 (Trypanosoma brucei) [µM]	IC50 (Trypanosoma cruzi) [µM]	IC50 (Leishmania donovani) [µM]	IC50 at 48 h [1] [µM]	selectivity ratio [2]	selectivity ratio [3]	selectivity ratio [4]
CC(=O)O[C@H]1CC[C@@]2(C)C(=CC[C@H]3[C@@H]4CC[C@H]([C@@H](C)NCc5cn(Cc6ccccc6)nn5)[C@@]4(C)CC[C@@H]32)C1	1.15	> 10	> 10	> 7.16	> 6.22		
CC(=O)O[C@H]1CC[C@@]2(C)C(=CC[C@H]3[C@@H]4CC[C@H]([C@@H](C)NCc5cn(C/C=C(\C)CCC=C(C)C)nn5)[C@@]4(C)CC[C@@H]32)C1	1.25	> 10	10.3	> 8.67	> 6.93	0.84	
C#CCN[C@@H](C)[C@H]1CC[C@H]2[C@@H]3CC=C4C[C@@H](OC(C)=O)CC[C@]4(C)[C@H]3CC[C@]12C	1.8	8.88	> 10	> 11.9	> 6.44		> 1.31
CCCCCCCCn1cc(CN[C@@H](C)[C@H]2CC[C@H]3[C@@H]4CC=C5C[C@@H](OC(C)=O)CC[C@]5(C)[C@H]4CC[C@]23C)nn1	0.62	> 10	7.87	> 9.04	> 14.6	> 1.15	
C[C@]12CC[C@H]3[C@@H](CC=C4C[C@@H](O)CC[C@@]43C)[C@@H]1CC[C@@H]2[C@@](C)(O)Cn1cc(CCCc2ccccc2)nn1	2.27	> 10	> 10	> 9.66	> 4.25		
C[C@]12CC[C@H]3[C@@H](CC=C4C[C@@H](O)CC[C@@]43C)[C@@H]1CC[C@@H]2[C@@](C)(O)Cn1cc(CCO)nn1	1.78	> 10	> 10	> 11.3	> 6.33		
C[C@]12CC[C@H]3[C@@H](CC=C4C[C@@H](O)CC[C@@]43C)[C@@H]1CC[C@@H]2[C@@](C)(O)Cn1cc(-c2ccccc2)nn1	> 10	> 10	> 10	> 10.5			
CC(=O)O[C@H]1CC[C@@]2(C)C(=CC[C@H]3[C@@H]4CC[C@H]([C@@H](C)NCc5cn(CCCc6ccccc6)nn5)[C@@]4(C)CC[C@@H]32)C1	0.2	4.5	> 10	> 8.95	> 44.7		> 1.99
CCCCCCCCn1cc(CN[C@H](C)[C@H]2CC[C@H]3[C@@H]4CC=C5C[C@@H](OC(C)=O)CC[C@]5(C)[C@H]4CC[C@]23C)nn1	1.98	> 10	> 10	> 9.04	> 4.57		
C[C@H](NCc1cn(Cc2ccccc2)nn1)[C@H]1CC[C@H]2[C@@H]3CC=C4C[C@@H](O)CC[C@]4(C)[C@H]3CC[C@]12C	0.68	0.33	1.33	> 10.2	> 15	> 7.69	> 31
COC(=O)c1cn(C[C@](C)(O)[C@H]2CC[C@H]3[C@@H]4CC=C5C[C@@H](O)CC[C@]5(C)[C@H]4CC[C@@]32C)nn1	8.28	> 10	> 10	> 10.6	> 1.28		
C[C@]12CC[C@H]3[C@@H](CC=C4C[C@@H](O)CC[C@@]43C)[C@@H]1CC[C@@H]2[C@@](C)(O)CNCc1cn(CCCc2ccccc2)nn1	> 10	> 10	1.04	> 9.14		> 8.77	
CC(=O)O[C@H]1CC[C@@]2(C)C(=CC[C@H]3[C@@H]4CC[C@H]([C@H](C)NCc5cn(C/C=C(\C)CCC=C(C)C)nn5)[C@@]4(C)CC[C@@H]32)C1	0.63	> 10	4.83	> 8.67	> 13.8	> 1.79	
CCOC(=O)Cn1cc(CN[C@@H](C)[C@H]2CC[C@H]3[C@@H]4CC=C5C[C@@H](O)CC[C@]5(C)[C@H]4CC[C@]23C)nn1	> 10	> 10	6.4	> 10.3		> 1.61	
C[C@]12CC[C@H]3[C@@H](CC=C4C[C@@H](O)CC[C@@]43C)[C@@H]1CC[C@@H]2[C@@](C)(O)CN=[N+]=[N-]	> 10	> 10	> 10	> 12			
CC(C)=CCC/C(C)=C/Cn1cc(CN[C@@H](C)[C@H]2CC[C@H]3[C@@H]4CC=C5C[C@@H](O)CC[C@]5(C)[C@H]4CC[C@]23C)nn1	0.64	3.17	1.68	> 9.35	> 14.6	> 5.56	> 2.95
CCOC(=O)Cn1cc(CN[C@H](C)[C@H]2CC[C@H]3[C@@H]4CC=C5C[C@@H](OC(C)=O)CC[C@]5(C)[C@H]4CC[C@]23C)nn1	6.5	> 10	> 10	> 9.49	> 1.46		
CCCCCc1cn(C[C@](C)(O)[C@H]2CC[C@H]3[C@@H]4CC=C5C[C@@H](O)CC[C@]5(C)[C@H]4CC[C@@]32C)nn1	0.18	6.33	> 10	> 10.6	> 59.8		> 1.68
CCOC(=O)Cn1cc(CN[C@H](C)[C@H]2CC[C@H]3[C@@H]4CC=C5C[C@@H](O)CC[C@]5(C)[C@H]4CC[C@]23C)nn1	6.5	> 10	6.6	> 10.3	> 1.59	> 1.56	
C[C@@H](NCc1cn(Cc2ccccc2)nn1)[C@H]1CC[C@H]2[C@@H]3CC=C4C[C@@H](O)CC[C@]4(C)[C@H]3CC[C@]12C	1.77	2.47	6.14	> 10.2	> 5.78	> 1.67	> 4.14
CC1CS(=O)(=O)CCN1/N=C/c1ccc([N+](=O)[O-])o1 (stereo not given) [NIFURTIMOX]					18.8		15.2
N=C(N)c1ccc(OCCCCCOc2ccc(C(=N)N)cc2)cc1 [PENTAMIDINE]						7.6	

Further lines, with some results ahead:

IC50 (Trypanosoma brucei) [µM]	IC50 (Trypanosoma cruzi) [µM]	Structure (SMILES)	IC50 (Leishmania donovani) [µM]	IC50 at 48 h [1] [µM]	selectivity ratio [2]	selectivity ratio [3]	selectivity ratio [4]
1.82	6.48	C[C@@H](NCc1cn(CCCc2ccccc2)nn1)[C@H]1CC[C@H]2[C@@H]3CC=C4C[C@@H](O)CC[C@]4(C)[C@H]3CC[C@]12C	1.94	> 9.42	> 5.18	> 5	> 1.45
1.43	2.22	C[C@H](NCc1cn(CCCc2ccccc2)nn1)[C@H]1CC[C@H]2[C@@H]3CC=C4C[C@@H](O)CC[C@]4(C)[C@H]3CC[C@]12C	1.35	> 9.68	> 6.77	> 7.14	> 4.36
0.55	1.95	CCCCCCCCn1cc(CN[C@@H](C)[C@H]2CC[C@H]3[C@@H]4CC=C5C[C@@H](O)CC[C@]5(C)[C@H]4CC[C@]23C)nn1	1.47	> 9.79	> 17.8	> 6.67	> 5.02
0.2	2.55	CC(=O)O[C@H]1CC[C@@]2(C)C(=CC[C@H]3[C@@H]4CC[C@H]([C@H](C)NCc5cn(Cc6ccccc6)nn5)[C@@]4(C)CC[C@@H]32)C1	2.54	> 9.42	> 47.1	> 3.7	> 3.69
1.77	> 10	C#CCNC[C@](C)(O)[C@H]1CC[C@H]2[C@@H]3CC=C4C[C@@H](O)CC[C@]4(C)[C@H]3CC[C@@]21C	> 10	> 12.3	> 6.95		
5.03	> 10	C#CCN[C@H](C)[C@H]1CC[C@H]2[C@@H]3CC=C4C[C@@H](OC(C)=O)CC[C@]4(C)[C@H]3CC[C@]12C	> 10	> 11.9	> 2.3		
> 10	> 10	CCOC(=O)Cn1cc(CNC[C@](C)(O)[C@H]2CC[C@H]3[C@@H]4CC=C5C[C@@H](O)CC[C@]5(C)[C@H]4CC[C@@]32C)nn1	> 10	> 9.71			
1.5	> 10	CCCCCCCCn1cc(CN[C@H](C)[C@H]2CC[C@H]3[C@@H]4CC=C5C[C@@H](O)CC[C@]5(C)[C@H]4CC[C@]23C)nn1	2.55	> 9.79	> 6.53	> 3.85	
0.66	> 10	CC(C)=CCC/C(C)=C/Cn1cc(CN[C@H](C)[C@H]2CC[C@H]3[C@@H]4CC=C5C[C@@H](O)CC[C@]5(C)[C@H]4CC[C@]23C)nn1	1.14	> 9.35	> 14.2	> 8.2	
	7.4	O=C(Cn1ccnc1[N+](=O)[O-])NCc1ccccc1 [BENZNIDAZOLE]					1.9
